Columns and labels:
[1] = biological target: T1, isomerase (Bos taurus, UniProt Q28175); assay: isomerase reaction: 11-cis-retinol production by RPE microsomes from all-trans-retinol; format: biochemical, bovine
T1 construct: Purified RPE microsomes were the source of the enzymes; from tissue; host or cells: bovine retinal pigment epithelium microsomes
T1 sequence (Q28175 2-533 limits assumed): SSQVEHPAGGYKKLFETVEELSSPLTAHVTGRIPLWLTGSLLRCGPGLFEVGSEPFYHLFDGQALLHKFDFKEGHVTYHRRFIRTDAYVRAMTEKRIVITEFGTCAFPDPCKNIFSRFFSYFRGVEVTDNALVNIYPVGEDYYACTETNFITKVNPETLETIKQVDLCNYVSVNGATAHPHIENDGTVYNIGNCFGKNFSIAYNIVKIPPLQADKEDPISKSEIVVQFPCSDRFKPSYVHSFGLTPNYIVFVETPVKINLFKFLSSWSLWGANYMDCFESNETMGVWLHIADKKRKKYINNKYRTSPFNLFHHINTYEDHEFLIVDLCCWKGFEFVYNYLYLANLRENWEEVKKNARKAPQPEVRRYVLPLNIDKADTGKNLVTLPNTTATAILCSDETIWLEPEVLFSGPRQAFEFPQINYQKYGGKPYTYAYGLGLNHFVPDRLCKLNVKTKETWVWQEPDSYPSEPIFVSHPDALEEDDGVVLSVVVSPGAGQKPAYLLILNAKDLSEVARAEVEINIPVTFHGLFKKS
Protocol: To test if 11-cis-retinylamine (11-cis Ret-NH2) affects isomerization and esterification, an in vitro assay was employed. In this assay both of the all-trans-retinyl esters formed in the reaction catalyzed by LRAT and 11-cis-retinol production by isomerase were measured (6). Purified RPE microsomes were the source of the enzymes, and all-trans-retinol was the substrate. […] Inhibition of isomerization by Ret-NH2 is not due to binding of CRALBP or competition with 11-cis-retinol for binding to CRALBP. […] An increased concentration of all-trans-retinol lowered the level of inhibition, as illustrated in FIG. 2B. […] Dixon's and Lineweaver-Burk plots in the standard assay conditions yielded Ki=0.1 μM for Ret-NH2 when all-trans-retinol (KM=0.3 μM) was assumed to be a substrate. […] This estimated value reflects the very potent nature of the inhibition by 11-cis-Ret-NH2.
Materials—Fresh bovine eyes were obtained from a local slaughterhouse (Schenk Packing Co., Inc., Stanwood, Wash.). Preparation of bovine RPE microsomes was performed according to previously described methods (Stecher et al., J Biol Chem 274:8577-85, 1999). All chemicals were purchased from Sigma-Aldrich (St. Louis, Mo.). 11-cis-Retinal was obtained from Dr. Rosalie Crouch (Charleston, S.C.).
Reaction conditions for isomerase and LRAT reaction—The isomerase reaction was performed essentially as described previously (Stecher et al., J Biol Chem 274:8577-85, 1999). The reaction was carried out in 10 mM BTP buffer, pH 7.5, 1% BSA, containing 1 mM ATP and 6 μM apo-CRALBP. To investigate inhibition properties of Ret-NH2 and its derivatives, RPE microsomes were preincubated for 5 min in 37° C. with the indicated compound in 10 mM BTP buffer, pH 7.5, 1% BSA, 1 mM ATP prior to addition of apo-CRALBP and all-trans-retinol. Ret-NH2 and its derivatives were delivered to the reaction mixture in 1 μl of DMF, and the same volume of DMF was added to the control reaction. Each experiment was performed three times in duplicate. The average values were used and the standard deviations were calculated.

[2] = test system: regeneration of vision chromophore (11-cis-retinal); assay: regeneration of 11-cis-retinal in mouse eyes after gavage and light bleach, HPLC retinoid analysis; format: in vivo
Protocol: Mice were gavaged with all-trains-Ret-NH2, exposed to intense light for 20 min, and then allowed to recover in the dark for 5 hours. The total amount of different forms of retinoids in all experiments was unchanged. […] For this experiment mice were treated with both 9-cis-retinol and all-trans-Ret-NH2, and bleached after 24 hours, and were allowed to recover for 5 hours in the dark. The presence of 9-cis-retinal was confirmed in treated animals (see peaks 4 and 4′ in FIG. 4A bottom panel, corresponding to syn- and anti-9-cis-retinal oximes, respectively). 11-cis-Retinal was not reduced and/or esterified after treatment with Ret-NH2. […] This supports the idea that Ret-NH2 is a specific inhibitor of the isomerization reaction.
A. Chromatographic separation of nonpolar retinoids from WT mouse eyes. Mice were gavaged with all-trans-Ret-NH2 24 hours prior to bleaching for 20 min at 150 cd·m^−2 W in the Ganzfeld chamber. Regeneration of 11-cis-retinal was allowed for 24 hours in the dark, and retinoids were extracted from the eye and separated by normal phase HPLC as described in Materials and Methods. The peaks were identified based on elution time and absorption spectra correspond to the following retinoids: 1, all-trans-retinyl esters; 2,2′, syn- and anti-11-cis-retinal oximes; 3, syn-all-trans-retinal oxime; 4,4′, syn- and anti-9-cis-retinal oximes; 5, all-trans-retinol. B. Changes of 11-cis-retinal oxime levels at increasing doses of all-trans-Ret-NH2 during 5 hours or 24 hours of dark adaptation. Square indicates the level of 11-cis-retinal oximes that was present in mice gavaged with vegetable oil without retinoids just after bleaching, and arrow indicates the increase of visual chromophore during 5 hours of dark adaptation. Triangles correspond to the level of 11-cis-retinal found in the mice gavaged with 50 mg/kg of 13-cis-RA. C and D. Single flash ERG responses of increasing intensity for all-trans-Ret-NH2 treated mice and control mice. Serial responses to increasing flash stimuli were obtained for all-trans-Ret-NH2 treated and control mice for selected intensities (C) and plotted as a function of a-wave and b-wave versus varying light intensities under dark-adapted conditions (D) before bleach and at 5 hours and 24 hours after bleach. The dark-adapted mice were bleached with intense constant illumination (150 cd·m^−2) for 20 min. […] SE bars are shown.
Chromatographic separation of nonpolar retinoids from WT mouse eyes. Mice were gavaged with 100 mg/kg of all-trans-Ret-NH2 24 hours prior to bleaching. Mice were next exposed to 500 cd m^−2 for 48 min bleaching in the Ganzfeld chamber. Regeneration of 11-cis-retinal was allowed for 24 hours in the dark, and retinoids were extracted from the eye and separated by normal phase HPLC as described in Materials and Methods. The peaks identified based on elution time and absorption spectra correspond to the following retinoids: 1, all-trans-retinyl esters; 2,2′, syn- and anti-1-cis-retinal oximes; 3,3′ syn- and anti-all-trans-retinal oximes; 4, all-trans-retinol.
Mice were gavaged with the solution of inhibitor in vegetable oil (control—non-treated, RPN—retinylpalmitamide, RAN—retinylacetamide, Ret—NH2-all-trans-retinylamine), kept in dark for 16 hours, then light stimulated and kept in dark for additional 5 hours before their eyes were analyzed.
Mouse retinoid extraction and analysis—Retinoid analysis was performed under dim red light as described previously (Maeda et al., J. Neurochem 85:944-956, 2003; Van Hooser et al., J Biol Chem 277:19173-82, 2002). Mice were gavaged with retinoids as described previously (Van Hooser et al., J Biol Chem 277:19173-82, 2002).

Compound | Ki ([1]; Dixon's and Lineweaver-Burk plots, standard assay conditions, all-trans-retinol assumed to be substrate, estimated value) [nM] | mode of isomerase inhibition ([1]; initial rate vs concentrations of all-trans-retinol and 11-cis-Ret-NH2) | change in amount of Ret-NH2 between start and end of the assay (HPLC) ([1]; time course of the in vitro isomerase assay) [%] | IC50 of chromophore recovery, 5 hours recovery ([2]; 20 min high-intensity light, 5 hours dark) [mg/kg] | IC50 of chromophore recovery, 24 hours recovery ([2]; 20 min high-intensity light, 24 hours dark) [mg/kg] | recovery of chromophore after all 11-cis-retinal is photoisomerized ([2]; longer light treatment (100 mg/kg, 500 cd m^-2 for 48 min, 24 hours dark)) | IC50 ([1]; RPE microsomes, all-trans-retinol substrate, read-out: IC50, inhibition of 11-cis-retinol production) [nM] | retinoid levels in the eye without light exposure ([2]; 50 mg/kg, not exposed to light, after 30 hours) | 11-cis-retinal in the eye after bleach and dark recovery ([2]; gavage, intense light 20 min, 5 hours in the dark) | levels of all-trans-retinyl esters in the eye ([2]; gavage, intense light 20 min, 5 hours in the dark, vs controls) | uptake, transport or oxidation of 9-cis-retinol ([2]; mice given 9-cis-retinol and all-trans-Ret-NH2, bleached after 24 hours, 5 hours dark)
CC1=C(/C=C/C(C)=C/C=C/C(C)=C/CN)C(C)(C)CCC1 [Ret-NH2, Retinylamine] | 100 | reversible and can be competed out by all-trans-retinol | ≤ 5 | 2 | 24 | completely blocks recovery of chromophore | – | – | – | – | –
CC1=C(/C=C/C(C)=C/C=C/C(C)=C/CN)C(C)(C)CCC1 [all-trans-Ret-NH2, all-trans-retinylamine] | – | – | – | – | – | – | 500 | normal levels of retinoids | only a residual amount | elevated | did not affect

Source: patent publication US20080275134A1, “Methods for Treatment of Retinal Degenerative Disease” (University of Washington, priority 2005, published 2008)
